Test system: Factor Xa
Assay: Factor Xa assay (HEPRN) of heparin biological activity
Format: biochemical
Procedure: The silica sol loaded with heparin was prepared by a two step sol-gel process using acid as a catalyst (Ellerby et al. 1992). The following reagents were used, tetraethoxysilane (TEOS) (Aldrich), deionized water, nitric acid (HNO3) (Merck), acetic acid (CH3COOH) (Merck), ammonium hydroxide (NH4OH) (Merck)) and heparin sodium salt (Orion Corporation, Finland). The biological activity of the used heparin was 84 IU/mg measured by Factor Xa assay (HEPRN). The first step of the reaction series was a hydrolysis reaction between water and alkoxide. The mol ratio of the silica sol was TEOS:H2O:HNO3=1:15:0.0015 and TEOS:H2O:CH3COOH=1:15:0.026, respectively. Modification of the nitric acid catalyzed sol was carried out by co-hydrolysis of TEOS with the following organomodified (i.e. alkylsubstituted) alkoxysilanes: dimethyldiethoxysilane Me2Si(OEt)2 (DMDES) (Lancaster), methyltriethoxysilane MeSi(OEt)3(METES) (Aldrich) or ethyltriethoxysilane EtSi(OEt)3 (ETES) (Lancaster). For the partial substitution of TEOS, 10 or 25 mol-% organomodified alkoxysilane was used. After the first step, i.e. hydrolysis reaction, pH was raised to 4.54.8 with base (0.1 or 1 M NH4OH) before heparin addition. […] The concentration of heparin in silica sol ranged from 1 wt % to 4 wt % calculated on the sol, corresponding to 6.8–29.2 wt % in the air dried silica xerogel. […]

heparin
biological activity of the used heparin: 84 IU/mg
